Results taken from patent publication US9708308B2, “Factor IXa inhibitors” (Merck Sharp & Dohme Corp., priority 2012, dated 2017).
pIC50: −log10 of the molar value.

The compounds below were run against Factor IXa (Homo sapiens, UniProt P00740) (assay: Determination of inhibitory activity against Factor IXa (cleavage of fluorescent peptide substrate)). Settings: cleavage of fluorescent peptide CH3SO2-D-CHG-Gly-Arg-AFC, release of AFC; read-out: FIXa IC50.
Assay type: biochemical
Source text: • (R)—N-(3-aminobenzo[d]isoxazol-6-yl)-2-hydroxy-2-((R)-4-(1-(6-methoxypyridazin-4-yl)-1H-pyrazol-3-yl)-6,6-dimethyl-3-oxomorpholin-2-yl)acetamide. Determination of Inhibitory Activity Against Factor IXa
Formation of a clot to stem bleeding at a site of blood vessel injury involves the coordinated activity of a group of plasma proteins that initiate and propagate fibrin formation and subsequently protect fibrin from premature degradation. Factor IX is a key component of the plasma system that forms a fibrin clot at a site of vascular injury. The activity of Factor IXa is measured by monitoring the cleavage of the fluorescent peptide, CH3SO2-D-CHG-Gly-Arg-AFC.AcOH (“CHG” is cyclohexyl-glycine and “AFC” is trifluoro aminomethyl coumarin). Factor IXa cleaves the amide bond between Arg and AFC, thereby releasing the AFC fluorophore. The free AFC can be detected with a fluorescence detector at an excitation wavelength of 405 nm and emission wavelength of 510 nm.

Chain of Factor IXa (P00740 227-461 limits assumed): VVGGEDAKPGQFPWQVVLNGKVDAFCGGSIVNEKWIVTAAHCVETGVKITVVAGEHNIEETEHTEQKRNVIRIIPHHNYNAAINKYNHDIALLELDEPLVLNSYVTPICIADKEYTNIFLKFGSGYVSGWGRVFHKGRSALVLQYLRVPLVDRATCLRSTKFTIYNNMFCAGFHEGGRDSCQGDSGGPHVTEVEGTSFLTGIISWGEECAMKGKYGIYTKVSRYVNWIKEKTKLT
Chain of Factor IXa (P00740 47-191 partner limits assumed): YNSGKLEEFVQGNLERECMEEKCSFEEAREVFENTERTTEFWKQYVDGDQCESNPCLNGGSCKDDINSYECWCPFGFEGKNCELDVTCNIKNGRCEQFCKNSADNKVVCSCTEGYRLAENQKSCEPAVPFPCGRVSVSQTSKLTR

SMILES | pIC50
CCOc1cc(-n2ccc(N3CCO[C@H]([C@@](C)(O)C(=O)Nc4ccc5c(N)noc5c4)C3=O)n2)ccn1 [Example 23, (R)—N-(3-aminobenzo[d]isoxazol-6-yl)-2-((R)-4-(1-(2-ethoxypyridin-4-yl)-1H-pyrazol-3-yl)-3-oxomorpholin-2-yl)-2-hydroxypropanamide] | 6.95
CC(C)Oc1cc(-n2ccc(N3CCO[C@H]([C@@](C)(O)C(=O)Nc4ccc5c(N)noc5c4)C3=O)n2)ccn1 [Example 24, (R)—N-(3-aminobenzo[d]isoxazol-6-yl)-2-hydroxy-2-((R)-4-(1-(2-isopropoxypyridin-4-yl)-1H-pyrazol-3-yl)-3-oxomorpholin-2-yl)propanamide] | 6.41
CN(C)c1cc(-n2ccc(N3CCO[C@H]([C@@](C)(O)C(=O)Nc4ccc5c(N)noc5c4)C3=O)n2)ccn1 [Example 25, (R)—N-(3-aminobenzo[d]isoxazol-6-yl)-2-((R)-4-(1-(2-(dimethylamino)pyridin-4-yl)-1H-pyrazol-3-yl)-3-oxomorpholin-2-yl)-2-hydroxypropanamide] | 7.02
COc1cc(-n2ccc(N3CCO[C@H]([C@@](C)(O)C(=O)Nc4ccc5c(N)noc5c4)C3=O)n2)c(Br)cn1 [Example 26, (R)—N-(3-aminobenzo[d]isoxazol-6-yl)-2-((R)-4-(1-(5-bromo-2-methoxypyridin-4-yl)-1H-pyrazol-3-yl)-3-oxomorpholin-2-yl)-2-hydroxypropanamide] | 6.46
COc1cc(-n2ccc(N3CCO[C@H]([C@@](C)(O)C(=O)Nc4ccc5c(N)noc5c4)C3=O)n2)c(F)cn1 [Example 27, (R)—N-(3-aminobenzo[d]isoxazol-6-yl)-2-((R)-4-(1-(5-fluoro-2-methoxypyridin-4-yl)-1H-pyrazol-3-yl)-3-oxomorpholin-2-yl)-2-hydroxypropanamide] | 6.83
COc1cc(-n2ccc(N3CCO[C@H]([C@@](C)(O)C(=O)Nc4ccc5c(N)noc5c4)C3=O)n2)c(Cl)cn1 [Example 28, (R)—N-(3-aminobenzo[d]isoxazol-6-yl)-2-((R)-4-(1-(5-chloro-2-methoxypyridin-4-yl)-1H-pyrazol-3-yl)-3-oxomorpholin-2-yl)-2-hydroxypropanamide] | 6.35
COc1cc(-n2ccc(N3CCO[C@H]([C@@](C)(O)C(=O)Nc4ccc5c(N)noc5c4)C3=O)n2)c(C(F)(F)F)cn1 [Example 29, (R)—N-(3-aminobenzo[d]isoxazol-6-yl)-2-hydroxy-2-((R)-4-(1-(2-methoxy-5-(trifluoromethyl)pyridin-4-yl)-1H-pyrazol-3-yl)-3-oxomorpholin-2-yl)propanamide] | 6.97
COc1cc(-n2cc(Cl)c(N3CCO[C@H]([C@@](C)(O)C(=O)Nc4ccc5c(N)noc5c4)C3=O)n2)ccn1 [Example 33, (R)—N-(3-aminobenzo[d]isoxazol-6-yl)-2-((R)-4-(4-chloro-1-(2-methoxypyridin-4-yl)-1H-pyrazol-3-yl)-3-oxomorpholin-2-yl)-2-hydroxypropanamide] | 6.09
C[C@](O)(C(=O)Nc1ccc2c(N)noc2c1)[C@H]1OCCN(c2nn(-c3ccnc(C#N)c3)cc2Cl)C1=O [Example 34, (R)—N-(3-aminobenzo[d]isoxazol-6-yl)-2-((R)-4-(4-chloro-1-(2-cyanopyridin-4-yl)-1H-pyrazol-3-yl)-3-oxomorpholin-2-yl)-2-hydroxypropanamide] | 6.24
COc1cc(-n2cc(C)c(N3CCO[C@H]([C@@](C)(O)C(=O)Nc4ccc5c(N)noc5c4)C3=O)n2)ccn1 [Example 35, (R)—N-(3-aminobenzo[d]isoxazol-6-yl)-2-hydroxy-2-((R)-4-(1-(2-methoxypyridin-4-yl)-4-methyl-1H-pyrazol-3-yl)-3-oxomorpholin-2-yl)propanamide] | 6.16
COc1cc(-n2nc(N3CCO[C@H]([C@@](C)(O)C(=O)Nc4ccc5c(N)noc5c4)C3=O)cc2C)ccn1 [Example 36, (R)—N-(3-aminobenzo[d]isoxazol-6-yl)-2-hydroxy-2-((R)-4-(1-(2-methoxypyridin-4-yl)-5-methyl-1H-pyrazol-3-yl)-3-oxomorpholin-2-yl)propanamide] | 7.02
COc1cc(-n2ccc(N3CCO[C@H]([C@@](C)(O)C(=O)Nc4ccc5c(N)noc5c4)C3=O)n2)cnn1 [Example 39, (R)—N-(3-aminobenzo[d]isoxazol-6-yl)-2-hydroxy-2-((R)-4-(1-(6-methoxypyridazin-4-yl)-1H-pyrazol-3-yl)-3-oxomorpholin-2-yl)propanamide] | 6.80
C[C@](O)(C(=O)Nc1ccc2c(N)noc2c1)[C@H]1OCCN(c2ccn(-c3cnnc(OC4CCC4)c3)n2)C1=O [Example 43, (R)—N-(3-aminobenzo[d]isoxazol-6-yl)-2-((R)-4-(1-(6-cyclobutoxypyridazin-4-yl)-1H-pyrazol-3-yl)-3-oxomorpholin-2-yl)-2-hydroxypropanamide] | 6.27
Cn1ncc(-n2ccc(N3CCO[C@H]([C@@](C)(O)C(=O)Nc4ccc5c(N)noc5c4)C3=O)n2)cc1=O [Example 44, (R)—N-(3-aminobenzo[d]isoxazol-6-yl)-2-hydroxy-2-((R)-4-(1-(1-methyl-6-oxo-1,6-dihydropyridazin-4-yl)-1H-pyrazol-3-yl)-3-oxomorpholin-2-yl)propanamide] | 6.09

Stronger by pIC50, values ahead:

pIC50 | SMILES
7.80 | C[C@](O)(C(=O)Nc1ccc2c(N)noc2c1)[C@H]1OCCN(c2ccn(-c3ccnc(C#N)c3)n2)C1=O [Example 21, (R)—N-(3-aminobenzo[d]isoxazol-6-yl)-2-((R)-4-(1-(2-cyanopyridin-4-yl)-1H-pyrazol-3-yl)-3-oxomorpholin-2-yl)-2-hydroxypropanamide]
7.43 | C[C@](O)(C(=O)Nc1ccc2c(N)noc2c1)[C@H]1OCCN(c2ccn(-c3ccnc(C(F)(F)F)c3)n2)C1=O [Example 22, (R)—N-(3-aminobenzo[d]isoxazol-6-yl)-2-hydroxy-2-((R)-3-oxo-4-(1-(2-(trifluoromethyl)pyridin-4-yl)-1H-pyrazol-3-yl)morpholin-2-yl)propanamide]
7.44 | C[C@](O)(C(=O)Nc1ccc2c(N)noc2c1)[C@H]1OCCN(c2nn(-c3ccnc(C(F)(F)F)c3)cc2F)C1=O [Example 30, (R)—N-(3-aminobenzo[d]isoxazol-6-yl)-2-((R)-4-(4-fluoro-1-(2-(trifluoromethyl)pyridin-4-yl)-1H-pyrazol-3-yl)-3-oxomorpholin-2-yl)-2-hydroxypropanamide]
7.51 | C[C@](O)(C(=O)Nc1ccc2c(N)noc2c1)[C@H]1OCCN(c2nn(-c3ccnc(C#N)c3)cc2F)C1=O [Example 31, (R)—N-(3-aminobenzo[d]isoxazol-6-yl)-2-((R)-4-(1-(2-cyanopyridin-4-yl)-4-fluoro-1H-pyrazol-3-yl)-3-oxomorpholin-2-yl)-2-hydroxypropanamide]
8.36 | C[C@](O)(C(=O)Nc1ccc2c(N)noc2c1)[C@H]1OCCN(c2ccn(-c3ccnnc3)n2)C1=O [Example 37, (R)—N-(3-aminobenzo[d]isoxazol-6-yl)-2-hydroxy-2-((R)-3-oxo-4-(1-(pyridazin-4-yl)-1H-pyrazol-3-yl)morpholin-2-yl)propanamide]
7.64 | C[C@](O)(C(=O)Nc1ccc2c(N)noc2c1)[C@H]1OCCN(c2ccn(-c3cnnc(N4CCC4)c3)n2)C1=O [Example 38, (R)—N-(3-aminobenzo[d]isoxazol-6-yl)-2-((R)-4-(1-(6-(azetidin-1-yl)pyridazin-4-yl)-1H-pyrazol-3-yl)-3-oxomorpholin-2-yl)-2-hydroxypropanamide]
8.43 | [2H]C([2H])([2H])Oc1cc(-n2ccc(N3CCO[C@H]([C@@](C)(O)C(=O)Nc4ccc5c(N)noc5c4)C3=O)n2)cnn1 [Example 40, (2R)—N-(3-amino-1,2-benzoxazol-6-yl)-2-hydroxy-2-[(2R)-3-oxo-4-[1-[6-(trideuteriomethoxy)pyridazin-4-yl]pyrazol-3-yl]morpholin-2-yl]propanamide]
7.24 | CC(C)Oc1cc(-n2ccc(N3CCO[C@H]([C@@](C)(O)C(=O)Nc4ccc5c(N)noc5c4)C3=O)n2)cnn1 [Example 41, (R)—N-(3-aminobenzo[d]isoxazol-6-yl)-2-hydroxy-2-((R)-4-(1-(6-isopropoxypyridazin-4-yl)-1H-pyrazol-3-yl)-3-oxomorpholin-2-yl)propanamide]
8.58 | C[C@](O)(C(=O)Nc1ccc2c(N)noc2c1)[C@H]1OCCN(c2ccn(-c3cnnc(C#N)c3)n2)C1=O [Example 45, (R)—N-(3-aminobenzo[d]isoxazol-6-yl)-2-((R)-4-(1-(6-cyanopyridazin-4-yl)-1H-pyrazol-3-yl)-3-oxomorpholin-2-yl)-2-hydroxypropanamide]
8.85 | C[C@](O)(C(=O)Nc1ccc2c(N)noc2c1)[C@H]1OCCN(c2ccn(-c3cnnc(C(F)(F)F)c3)n2)C1=O [Example 46, (R)—N-(3-aminobenzo[d]isoxazol-6-yl)-2-hydroxy-2-((R)-3-oxo-4-(1-(6-(trifluoromethyl)pyridazin-4-yl)-1H-pyrazol-3-yl)morpholin-2-yl)propanamide]
8.16 | C[C@](O)(C(=O)Nc1ccc2c(N)noc2c1)[C@H]1OCCN(c2nn(-c3ccnnc3)cc2F)C1=O [Example 47, (R)—N-(3-aminobenzo[d]isoxazol-6-yl)-2-((R)-4-(4-fluoro-1-(pyridazin-4-yl)-1H-pyrazol-3-yl)-3-oxomorpholin-2-yl)-2-hydroxypropanamide]
8.38 | C[C@](O)(C(=O)Nc1ccc2c(N)noc2c1)[C@H]1OCCN(c2nn(-c3cnnc(C#N)c3)cc2F)C1=O [Example 48, (R)—N-(3-aminobenzo[d]isoxazol-6-yl)-2-((R)-4-(1-(6-cyanopyridazin-4-yl)-4-fluoro-1H-pyrazol-3-yl)-3-oxomorpholin-2-yl)-2-hydroxypropanamide]
